According to ChEMBL document CHEMBL5131572, “Identification of a Potent, Selective, and Brain-Penetrant Rho Kinase Inhibitor and its Activity in a Mouse Model of Huntington's Disease” (J Med Chem, 2022):
≈ marks a conversion by molar mass, not a printed value.

Assays:
[1] = Inhibition of ROCK in rat A7R5 cells assessed as cofilin serine 3 phosphorylation incubated for 1 hr by ICW assay; conditions: A7R5, 1 h
[2] = target: Rho-associated protein kinase 2 (Homo sapiens, UniProt O75116); experiment: Inhibition of recombinant N-terminal GST-tagged human ROCK2 (5 to 554 residues) expressed in baculovirus infected Sf9 cells using S6K as substrate incubated for 30 mins in presence of ATP by ADP Glo kinase assay
Chain of Rho-associated protein kinase 2 (O75116 whole entry, the tested form may be a part): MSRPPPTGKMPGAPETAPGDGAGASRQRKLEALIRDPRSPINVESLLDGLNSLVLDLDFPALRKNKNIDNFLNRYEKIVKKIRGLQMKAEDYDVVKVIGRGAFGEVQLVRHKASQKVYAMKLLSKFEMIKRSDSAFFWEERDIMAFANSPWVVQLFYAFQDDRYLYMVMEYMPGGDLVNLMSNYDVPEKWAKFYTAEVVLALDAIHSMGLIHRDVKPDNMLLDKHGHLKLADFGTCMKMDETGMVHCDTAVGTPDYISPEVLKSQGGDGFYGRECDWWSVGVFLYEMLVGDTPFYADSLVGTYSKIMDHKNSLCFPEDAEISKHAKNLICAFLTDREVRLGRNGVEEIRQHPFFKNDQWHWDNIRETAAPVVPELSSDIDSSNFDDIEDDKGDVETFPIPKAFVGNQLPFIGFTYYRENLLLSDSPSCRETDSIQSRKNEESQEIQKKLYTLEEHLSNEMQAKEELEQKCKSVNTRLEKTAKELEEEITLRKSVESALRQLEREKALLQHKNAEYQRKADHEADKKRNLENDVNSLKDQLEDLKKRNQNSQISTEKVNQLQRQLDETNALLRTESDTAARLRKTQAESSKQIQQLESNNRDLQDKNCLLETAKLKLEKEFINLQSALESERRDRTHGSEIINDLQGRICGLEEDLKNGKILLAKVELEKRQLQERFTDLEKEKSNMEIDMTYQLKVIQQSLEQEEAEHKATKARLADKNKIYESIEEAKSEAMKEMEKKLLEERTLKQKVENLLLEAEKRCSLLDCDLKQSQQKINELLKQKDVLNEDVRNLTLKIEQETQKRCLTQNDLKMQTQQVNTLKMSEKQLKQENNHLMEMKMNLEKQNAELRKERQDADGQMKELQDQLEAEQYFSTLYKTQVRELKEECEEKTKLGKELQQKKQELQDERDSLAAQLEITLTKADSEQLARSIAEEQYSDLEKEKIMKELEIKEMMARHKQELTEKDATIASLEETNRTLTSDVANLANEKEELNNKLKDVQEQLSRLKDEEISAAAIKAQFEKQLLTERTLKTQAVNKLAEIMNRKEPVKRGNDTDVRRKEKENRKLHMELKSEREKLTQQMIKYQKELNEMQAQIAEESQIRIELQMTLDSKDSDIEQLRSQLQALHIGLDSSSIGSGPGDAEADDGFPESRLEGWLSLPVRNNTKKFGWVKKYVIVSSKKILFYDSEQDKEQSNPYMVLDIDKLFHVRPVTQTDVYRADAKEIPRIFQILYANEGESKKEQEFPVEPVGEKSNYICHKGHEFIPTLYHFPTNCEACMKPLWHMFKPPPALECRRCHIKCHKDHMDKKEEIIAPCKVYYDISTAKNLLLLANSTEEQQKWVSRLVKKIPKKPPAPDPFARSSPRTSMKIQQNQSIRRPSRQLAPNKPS

[3] = target: T1, cGMP-dependent protein kinase 1 (Homo sapiens, UniProt Q13976); experiment: Inhibition of full length recombinant N-terminal GST-tagged human PKG expressed in baculovirus infected Sf9 insect cells using RSK as substrate preincubated for 15 mins followed by substrate addition and measured after 30 mins in presence of ATP by ADP Glo kinase assay
T1 sequence (Q13976 whole entry): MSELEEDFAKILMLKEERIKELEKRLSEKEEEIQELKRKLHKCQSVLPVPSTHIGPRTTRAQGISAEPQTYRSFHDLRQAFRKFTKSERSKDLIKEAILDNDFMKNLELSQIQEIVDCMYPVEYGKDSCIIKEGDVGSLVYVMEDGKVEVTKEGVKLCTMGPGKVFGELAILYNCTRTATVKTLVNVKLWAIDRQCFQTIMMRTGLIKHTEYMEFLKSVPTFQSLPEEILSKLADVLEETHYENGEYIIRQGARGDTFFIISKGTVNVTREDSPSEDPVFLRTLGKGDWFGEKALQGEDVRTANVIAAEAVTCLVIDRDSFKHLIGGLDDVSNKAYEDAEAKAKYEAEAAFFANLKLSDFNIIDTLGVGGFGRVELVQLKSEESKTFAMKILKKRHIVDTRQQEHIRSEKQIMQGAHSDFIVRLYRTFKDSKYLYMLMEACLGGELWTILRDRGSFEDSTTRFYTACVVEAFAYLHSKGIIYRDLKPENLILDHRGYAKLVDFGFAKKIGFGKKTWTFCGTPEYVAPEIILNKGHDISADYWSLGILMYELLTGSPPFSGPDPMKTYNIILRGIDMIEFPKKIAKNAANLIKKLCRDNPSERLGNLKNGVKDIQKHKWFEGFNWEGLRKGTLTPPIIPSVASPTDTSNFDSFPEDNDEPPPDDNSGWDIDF

[4] = Metabolic stability in mouse liver microsomes assessed as intrinsic clearance at 1 uM measured upto 40 mins in presence of NADPH by LC-MS/MS analysis; format: ADME, Microsome; conditions: read-out: CLH
[5] = Kinetic solubility of the compound in pH 7.4 PBS buffer incubated for 2 hrs using orbital shaker by LC-UV mass spectrometry; format: physicochemical; conditions: read-out: Kinetic_solubility
[6] = system: MDR1; experiment: in vitro; conditions: dog, MDCK-MDR1
Description: Efflux ratio of apparent permeability across basolateral to apical side to apical to basolateral side in MDCK-MDR1 cells at 10 uM measured after 1 hr by LC-MS/MS analysis

[7] = Distribution coefficient, logD of compound by chromatographic method; format: physicochemical; conditions: octanol/water
[8] = Lipophilicity, logP of compound; format: physicochemical; conditions: octanol/water
[9] = Apparent permeability in MDCK-MDR1 cells at 10 uM after 1 hr by LC-MS/MS analysis; format: ADME, cell-based, Canis lupus familiaris; conditions: dog
[10] = target: RAC-alpha serine/threonine-protein kinase (Homo sapiens, UniProt P31749); experiment: Inhibition of AKT (unknown origin)
Chain of RAC-alpha serine/threonine-protein kinase (P31749 whole entry): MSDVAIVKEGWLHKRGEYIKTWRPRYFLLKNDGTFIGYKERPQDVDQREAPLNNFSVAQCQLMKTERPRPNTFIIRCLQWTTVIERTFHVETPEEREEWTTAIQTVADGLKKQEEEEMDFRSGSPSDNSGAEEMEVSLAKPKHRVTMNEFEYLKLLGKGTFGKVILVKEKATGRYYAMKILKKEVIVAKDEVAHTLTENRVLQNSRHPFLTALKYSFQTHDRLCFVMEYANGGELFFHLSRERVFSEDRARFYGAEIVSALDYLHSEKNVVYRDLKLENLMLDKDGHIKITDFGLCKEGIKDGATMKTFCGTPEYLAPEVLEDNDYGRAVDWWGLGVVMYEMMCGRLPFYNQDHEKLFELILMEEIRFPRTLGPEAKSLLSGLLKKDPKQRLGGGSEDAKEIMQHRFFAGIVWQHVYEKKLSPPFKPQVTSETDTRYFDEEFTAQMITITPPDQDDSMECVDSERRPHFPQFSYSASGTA

[11] = target: T2, Cytochrome P450 1A2 (Homo sapiens, UniProt P05177); experiment: Time dependent inhibition of CYP1A2 in pooled human liver microsomes using […] as substrate preincubated for 30 mins in presence of NADPH followed by substrate addition and measured after 10 mins by LC-MS/MS analysis; format: ADME, Microsome
T2 sequence (P05177 whole entry): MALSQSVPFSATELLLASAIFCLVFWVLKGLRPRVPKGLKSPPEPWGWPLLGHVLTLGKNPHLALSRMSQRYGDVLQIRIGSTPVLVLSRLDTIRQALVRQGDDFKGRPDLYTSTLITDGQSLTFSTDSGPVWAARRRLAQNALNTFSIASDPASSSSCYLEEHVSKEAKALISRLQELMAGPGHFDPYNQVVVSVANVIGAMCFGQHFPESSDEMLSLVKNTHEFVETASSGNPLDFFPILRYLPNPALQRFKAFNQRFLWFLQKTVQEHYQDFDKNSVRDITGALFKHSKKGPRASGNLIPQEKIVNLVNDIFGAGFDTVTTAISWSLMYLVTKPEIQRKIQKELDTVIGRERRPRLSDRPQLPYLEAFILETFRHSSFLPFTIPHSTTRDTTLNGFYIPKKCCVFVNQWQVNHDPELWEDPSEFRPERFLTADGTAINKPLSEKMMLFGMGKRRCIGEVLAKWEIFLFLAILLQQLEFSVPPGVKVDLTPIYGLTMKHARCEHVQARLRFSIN

[12] = Clearance in C57BL/6 mouse plasma at 2 mg/kg, iv; format: ADME, organism-based
[13] = Unbound AUC in C57BL/6 mouse plasma at 10 mg/kg, po by LC-MS/MS analysis; format: ADME, organism-based; conditions: in vivo
[14] = Oral bioavailability in C57BL/6 mouse at 10 mg/kg; format: ADME, organism-based; conditions: in vivo
[15] = Unbound AUC in C57BL/6 mouse brain at 10 mg/kg, po by LC-MS/MS analysis; format: ADME, organism-based; conditions: in vivo

| SMILES | IC50 [1] | IC50 [2] | IC50 [3] | solubility kinetic at 2 h [5] | further results |
| --- | --- | --- | --- | --- | --- |
| COc1cccc([C@@H](C)NC(=O)N2CC[C@H](c3ccncc3)C[C@@H]2C)c1 | 3310 nM | 1640 nM | 48800 nM |  |  |
| COc1cccc([C@@H](C)NC(=O)N2CCN(c3ccncc3F)C[C@H]2C)c1F | 323 nM |  | 50900 nM | 150 µM (≈ 58.6 µg/mL) | CLint scaled at 1 µM [4]: 79 mL/min/kg; efflux ratio at 1 h, 10 µM [6]: 1.3; chromatographic logD [7]: 2.3; logP [8]: 2.6; Papp at 1 h, 10 µM [9]: 79.7 ×10⁻⁶ cm/s |
| C[C@@H]1CN(c2ccncc2F)CCN1C(=O)N[C@H](C)c1cccn2nccc12 | 14 nM | 2 nM | 6650 nM | > 200 µM | CLint scaled at 1 µM [4]: 169 mL/min/kg; efflux ratio at 1 h, 10 µM [6]: 3.7; chromatographic logD [7]: 1.6; logP [8]: 2.1; Papp at 1 h, 10 µM [9]: 104 ×10⁻⁶ cm/s |
| C[C@@H](N)[C@H]1CC[C@H](C(=O)Nc2ccncc2)CC1 [Y-27632] | 3030 nM |  |  |  | chromatographic logD [7]: 1.03; logP [8]: 0.62 |
| COc1cccc([C@@H](C)NC(=O)N2CCN(c3ccncc3F)CC2)c1 | 126 nM | 7 nM | 1830 nM |  |  |
| COc1cccc([C@@H](C)NC(=O)[C@H]2CC[C@@H](c3ccncc3)CC2)c1 | > 5000 nM | 4330 nM | 24300 nM |  |  |
| O=S(=O)(c1cccc2c(O)nccc12)N1CCCNCC1 [HYDROXYFASUDIL] | 3820 nM |  |  | > 200 µM | logP [8]: 1.43 |
| COc1cccc([C@@H](C)NC(=O)c2ccc(-c3ccnc(F)c3)cc2)c1 | 77 nM |  | 17 nM |  | IC50 [10]: 2370 nM |
| COc1cccc([C@@H](C)NC(=O)N2CC[C@@H](c3ccncc3)C[C@@H]2C)c1 | 4930 nM | 1300 nM | 53700 nM |  |  |
| CS(=O)(=O)Nc1cccc(CC(=O)Nc2cc(-c3ccnc(F)c3)cs2)c1 |  |  |  | 77 µM (≈ 31.2 µg/mL) | logP [8]: 3.45 |
| COc1cccc([C@@H](C)NC(=O)c2ccc(-c3ccnc(F)c3)cn2)c1 | 1030 nM | 50 nM |  |  |  |
| COc1cccc([C@@H](C)NC(=O)N2CCN(c3ccncn3)C[C@H]2C)c1 | 264 nM | 23 nM | 36500 nM |  |  |
| COc1cccc([C@@H](C)NC(=O)N2CCN(c3ccncc3)C(=O)C2)c1 | > 5000 nM | 534 nM |  |  |  |
| COc1cccc([C@@H](C)NC(=O)N2CC[C@@H](c3ccncc3)C[C@H]2C)c1 | 249 nM | 35 nM | 19400 nM |  |  |
| COc1cccc(CC(=O)Nc2cc(-c3ccnc(F)c3)cs2)c1 | 830 nM | 15 nM |  | 17 µM (≈ 5.82 µg/mL) | chromatographic logD [7]: 2.83; logP [8]: 4.53 |
| COc1cccc([C@@H](C)NC(=O)[C@H]2CC[C@H](c3ccncc3)C[C@H]2C)c1 | 963 nM | 45 nM | 33800 nM | 130 µM (≈ 45.8 µg/mL) | CLint scaled at 1 µM [4]: 90 mL/min/kg; efflux ratio at 1 h, 10 µM [6]: 1.1; Papp at 1 h, 10 µM [9]: 77.6 ×10⁻⁶ cm/s |
| COc1cccc([C@@H](C)NC(=O)N2CCC(c3ccncc3)CC2)c1 | 673 nM | 74 nM | 52800 nM |  |  |
| COc1cc([C@@H](C)NC(=O)N2CCN(c3ccncc3F)C[C@H]2C)ccc1F | 33 nM | 3 nM | 2340 nM |  |  |
| COc1cccc([C@@H](C)NC(=O)N2CC[C@H](c3ccncc3)C[C@H]2C)c1 | 71 nM | 9 nM | 23000 nM |  |  |
| COc1ccc(F)c([C@@H](C)NC(=O)N2CCN(c3ccncc3F)C[C@H]2C)c1 | 108 nM | 7 nM | 13100 nM |  |  |
| COc1ccc(Cl)c([C@@H](C)NC(=O)N2CCN(c3ccncc3F)C[C@H]2C)c1 | 164 nM |  | 11600 nM | 120 µM (≈ 48.8 µg/mL) | CLint scaled at 1 µM [4]: 199 mL/min/kg; chromatographic logD [7]: 2.7; logP [8]: 3.3; Papp at 1 h, 10 µM [9]: 122 ×10⁻⁶ cm/s |
| COc1cc(F)cc([C@@H](C)NC(=O)N2CCN(c3ccncc3F)C[C@H]2C)c1 | 15 nM |  | 1700 nM | 140 µM (≈ 54.7 µg/mL) | CLint scaled at 1 µM [4]: < 65 mL/min/kg; IC50 [11]: 1100 nM; chromatographic logD [7]: 2.4; clearance [12]: 85 mL/min/kg; fAUC [13]: 30 nM·kg·h/mg; logP [8]: 2.7; Papp at 1 h, 10 µM [9]: 98.4 ×10⁻⁶ cm/s; bioavailability [14]: 78%; fAUC [15]: 40 nM·kg·h/mg |
| COc1cccc([C@@H](C)NC(=O)[C@@H]2CC[C@@H](c3ccncc3)C[C@@H]2C)c1 | > 5000 nM | 851 nM |  | 11 µM (≈ 3.88 µg/mL) |  |
| C[C@@H]1CN(c2ccncc2F)CCN1C(=O)N[C@H](C)c1cccc2nccn12 | 18 nM |  | 8140 nM |  |  |
| COc1cccc([C@@H](C)NC(=O)N2CCN(c3ccncc3)CC2)c1 | 1460 nM | 4790 nM |  |  |  |
| COc1cccc([C@@H](C)NC(=O)N2CCC(c3ccncc3F)CC2)c1 | 721 nM | 45 nM | 31800 nM |  |  |
| COc1cccc([C@@H](C)NC(=O)c2ccc(-c3ccnc(F)c3)nn2)c1 | 4270 nM | 280 nM | 3600 nM |  |  |
| COc1cccc([C@@H](C)NC(=O)c2ccc(-c3ccncc3)nc2)c1 | 44 nM | 4 nM | 39 nM |  |  |
| COc1cccc([C@@H](C)NC(=O)[C@H]2CC[C@H](c3ccncc3)CC2)c1 | 974 nM | 98 nM | 5030 nM |  |  |
